Source: patent publication US20100291089A1, “LIGAND OF REGULATING IMMUNE RESPONSE, AND USE THEREOF IN TREATING AN IMMUNE RESPONSE-RELATED DISEASE” (POSTECH ACADEMY-INDUSTRY FOUNDATION, priority 2005, published 2010)
Values belong to the molecule of their own block, whether it stands above or below them. Where no end group is shown, it is not given here.

Tests used:
[1] = system: RA FLS; experiment: Cell proliferation assay ([3H]-thymidine incorporation, cell counts) in RA FLS; assay type: cell-based, human; conditions: SAA 5 μM, 72 h, PTX 100 ng/ml, U73122 1 μM, PD98059 50 μM, LY294002 50 μM
Procedure: Fibroblast-like synoviocytes (FLS) were prepared from synovial samples obtained from patients suffering from RA and osteoarthritis (OA), all of whom were also undergoing total joint replacement surgery. The FLS were isolated from the synovial tissues in accordance with a previously described procedure (Cho, C. S., M. L. Cho, S. Y. Min, W. U. Kim, D. J. Min, S. S. Lee, S. H. Park, J. Choe, and H. Y. Kim. 2000. CD40 engagement on synovial fibroblast up-regulates production of vascular endothelial growth factor. J. Immunol. 164: 5055-5061).
In brief, fresh synovial tissues were minced into 2- to 3-mm pieces, then treated for 4 h with 4 mg/ml type I collagenase (Worthington Biochemical), and maintained in Dulbecco's Modified Eagle's Medium (DMEM) containing 10% FBS at 37° C. in an atmosphere containing 5% CO2. […] MH7A cells, the immortalized synoviocytes that harbor the SV40 T antigen, were grown in DMEM supplemented with 10% FBS, as previously described (Miyazawa, K, A. Mori, and H. Okudaira. 1998. Establishment and characterization of a novel human rheumatoid fibroblast-like synoviocyte line, MH7A, immortalized with SV40T antigen. J. Biochem. 124: 1153-1162), and then employed in some of the experiments. Human umbilical vein endothelial cells (HUVECs) were isolated from fresh human umbilical cords via collagenase (Worthington Biochemical) digestion, and then maintained in 20% FBS-containing M-199 medium (Sigma, St. Louis, Mo.), as previously described. All HUVECs were used after no more than five passages.
The RA FLS, OA FLS, and HUVECs were plated onto 24-well culture dishes at a density of 2×10^4 cells/well, and then permitted to attach overnight. After 24 h of serum starvation, the cells were treated for 72 h with a variety of mitogens. [^3H]-thymidine (1 μCi) was added to each of the wells prior to the final 6 h of incubation. Cell growth was also evaluated via cell counts. Control and mitogen-treated cells were harvested by trypsinization, and the number of cells was determined with a hemocytometer, under ×100 magnification.

[2] = system: human neutrophils; experiment: Intracellular calcium mobilization (fura-2) in human neutrophils; assay type: cell-based; conditions: 1 M peptide
Procedure: Neutrophils were stimulated with 1 μM of PACAP27 (SEQ ID NO:1), PACAP38 (SEQ ID NO:2), or VIP (SEQ ID NO:3), and calcium concentrations were measured for 10 min. In order to measure EKR phosphorylation, each peptide hormones was used with 1 μM concentrations for 5 min. For cAMP measurement, each peptide hormones was used with 1 μM concentrations for 10 min.
(§1) Intracellular calcium concentrations ([Ca^2+]i) were determined using Grynkiewicz's method with fura-2/AM, as described in “Grynkiewicz, G., M. Poenie, and R. Y. Tsien. 1985. […] J. Biol. Chem. 260:3440-3450”. Briefly, the cells prepared in Example 1.2 were incubated with 3 µM fura-2/AM at 37° C. for 50 minutes in fresh serum free RPMI 1640 medium with continuous stirring. The incubated cells (2×10^6) were aliquoted for each assay in Ca^2+-free Locke's solution (154 mM NaCl, 5.6 mM KCl, 1.2 mM MgCl2, 5 mM HEPES (pH 7.3), 10 mM glucose, and 0.2 mM EGTA). Fluorescence changes at 340 and 380 nm using a common emission wavelength of 500 nm were measured, and fluorescence ratios were converted to [Ca2+]i, as described in above Grynkiewicz, G. et al.

[3] = system: HUVECs; experiment: HUVEC wounding migration assay; assay type: cell-based, human; conditions: SAA 5 μM, WKYMVm 10 nM, VEGF 20 ng/ml; 12 h
Procedure: […] After 12 h of incubation, migration was quantitated via counts of the cells migrating beyond the reference line. For the tube formation assay, the HUVECs were seeded on a layer of previously polymerized Matrigel (BD Biosciences) with SAA (SEQ ID NO:19) (5 μg/ml), WKYMVm (SEQ ID NO:5) peptide (10 nM), a specific ligand for FPRL1 (32, 33) or VEGF (20 ng/ml). After 18 h of incubation, the cell morphology was visualized via phase-contrast microscopy and photographed.

[4] = system: human neutrophils; experiment: FACS analysis of surface CD11b expression on neutrophils; assay type: cell-based; conditions: 1 μM or 10 μM, 1 hour
Procedure: Purified neutrophils were incubated with indicated concentration of PACAP27 (SEQ ID NO:1) for 1 hour. Cells (2×10^5/assay) were washed with FACS buffer (PBS containing 1% BSA and 0.1% sodium azide), incubated with human AB type serum for 10 minutes on ice, and stained with PE-labeled human CD11b antibody (BD PharMingen, San Diego, Calif.). They were then analyzed using a FACSCalibur system (BD Biosciences, San Jose, Calif.), as described in “Harfi, I., S. D'Hondt, F. Corazza, and E. Sariban. 2004. J. Immunol. 173:4154-4163”.

[5] = target: T1, formyl peptide receptor-like 1 (FPRL1) (human, UniProt P25090 1-351); experiment: cell-based or functional assay
T1 construct: in the other assays endogenous on human neutrophils, monocytes, synoviocytes (FLS, MH7A) or HUVECs; also called FPRL1/RBL; lipoxin A4 receptor (LXA4R)
T1 sequence: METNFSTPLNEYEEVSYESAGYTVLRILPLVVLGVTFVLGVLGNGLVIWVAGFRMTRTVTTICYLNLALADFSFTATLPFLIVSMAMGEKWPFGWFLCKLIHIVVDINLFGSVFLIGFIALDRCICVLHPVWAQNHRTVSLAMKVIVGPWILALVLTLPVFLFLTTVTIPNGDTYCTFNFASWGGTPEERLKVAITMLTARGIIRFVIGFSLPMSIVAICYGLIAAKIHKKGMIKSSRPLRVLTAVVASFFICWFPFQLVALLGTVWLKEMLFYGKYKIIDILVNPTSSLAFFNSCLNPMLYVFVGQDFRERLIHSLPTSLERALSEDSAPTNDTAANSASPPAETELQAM

[6] = target: T2, FPRL1 (Homo sapiens, UniProt P25090); experiment: Intracellular calcium mobilization (fura-2) in FPRL1/RBL cells; assay type: cell-based
T2 construct: expressed in transfected cells
T2 sequence (P25090 1-351): T1 sequence
Procedure: FPRL1-expressing rat basophile leukemia (RBL)-2H3 (FPRL1/RBL), FPR-expressing RBL-2H3 (FPR/RBL), and vector-transfected RBL-2H3 (vector/RBL) were donated by Dr. Richard D. Ye (University of Illinois). FPRL1/RBL, FPR/RBL, and vector/RBL were maintained at 37° C. in a humidified 5% CO2 atmosphere in high glucose DMEM supplemented with 20% (vol/vol) heat-inactivated fetal calf serum and G418 ([…]). FPRL1/RBL, FPR/RBL, and vector/RBL were sub-cultured every three days. The prepared cells were used in the following examples.
as §1

[7] = target: T2, FPRL1; experiment: Ligand binding analysis, 125I-labeled PACAP27 on FPRL1/RBL cells; conditions: compared with PACAP27
Procedure: The ligand binding analysis was performed as described in “Bae, Y. S., H. Y. Lee, E. J. Jo, J. I. Kim, H. K. Kang, R. D. Ye, J. Y. Kwak, and S. H. Ryu. 2004. J. Immunol. 173:607-614”. Briefly, FPRL1/RBL cells were seeded at 1×10^5 cells/well onto a 24 well plate and cultured overnight. After blocking them with blocking buffer (33 mM HEPES, pH 7.5, 0.1% BSA in RPMI 1640 medium) for 2 hours, 50 pM of ^125I-labeled PACAP27 (Perkin-Elmer, Boston, Mass.) was added to the cells in binding buffer (PBS containing 0.1% BSA), in the presence of the test peptides (cold PACAP27 (SEQ ID NO:1), truncated-PACAPs, and chimeric PACAPs), and then incubated for 3 hours at 4° C. with continuous shaking. The cells were then washed 5 times with ice-cold binding buffer, and 200 µL of lysis buffer (20 mM Tris, pH 7.5, 1% Triton X-100) was added to each well for 20 minutes at room temperature. Lysates were then collected and counted using a γ-ray counter.

[8] = target: T1, formyl peptide receptor-like 1 (FPRL1); experiment: displacement of 125I-PACAP27 by unlabeled peptide on FPRL1/RBL cells

Molecule: COc1cccc(-c2cc(=O)c3ccccc3o2)c1N [PD98059]
- blockage of the proliferative and anti-apoptotic activities of SAA [1]: almost complete blockage

Molecule: PACAP38: pituitary adenylate cyclase-activating polypeptide, 38 amino acids, SEQ ID NO:2 (HSDGIFTDSYSRYRKQMAVKKYLAAVLGKRYKQRVKNK; ends and bridges not checked; listed as Homo sapiens)
- [Ca2+]i increase in human neutrophils [2]: neither PACAP38 (SEQ ID NO:2) nor VIP (SEQ ID NO:3) increased [Ca2+]i

Molecule: VEGF
- migratory activity of HUVECs relative to control cells [3]: approximately 3 times

Molecule: polymyxin b-treated PACAP27: PACAP27 pretreated with 5 μM polymyxin b for 1 hour in 37° C. (HSDGIFTDSYSRYRKQMAVKKYLAAVL; not fully specified; ends and bridges not checked; listed as Homo sapiens)
- CD11b up-regulation compared with PACAP27 [4]: no difference

- intracellular Ca2+ in RA FLS (Fluo-3, calcium imaging), SAA 3 µM [5]: 2.3 fold
Molecule: Serum amyloid A (SAA) (from UniProt P0DJI8 19-94) (ligand)

Molecule: COc1ccc2c(c1)CC[C@@H]1[C@@H]2CC[C@]2(C)[C@@H](NCCCCCCN3C(=O)C=CC3=O)CC[C@@H]12 [U73122]
- blockage of the proliferative and anti-apoptotic activities of SAA [1]: almost complete blockage

Molecule: boiled PACAP27: PACAP27 heat-inactivated for 10 minutes in boiling water (HSDGIFTDSYSRYRKQMAVKKYLAAVL; not fully specified; ends and bridges not checked; listed as Homo sapiens)
- CD11b up-regulation compared with PACAP27 [4]: no difference

- [Ca2+]i increase / activation of FPRL1 [6]: does not interact with FPRL1
Molecule: VIP: vasoactive intestinal peptide, SEQ ID NO:3
- [Ca2+]i increase in human neutrophils [2]: neither PACAP38 (SEQ ID NO:2) nor VIP (SEQ ID NO:3) increased [Ca2+]i

- [Ca2+]i increase / activation of FPRL1 [6]: partially activate
Molecule: tPACAP9-27: truncated PACAP27, SEQ ID NO:7 (SYSRYRKQMAVKKYLAAVL; ends and bridges not checked; listed as Homo sapiens)
- binding affinity to FPRL1 (in words) [7]: almost the same binding affinity as PACAP27

- Kd [8]: 0.0512 µM
B1: cPACAP9VIP (chimeric PACAP) (peptide)
peptide: HSDGIFTDNYSRYRKQMAVKKYLAAVL
modifications: ends and bridges not checked
notes: PACAP27 with the VIP residue at position 9; bought from GenScript

- Kd [8]: 0.0512 µM
B2: cPACAP13VIP (chimeric PACAP) (peptide)
peptide: HSDGIFTDSYSRLRKQMAVKKYLAAVL
modifications: ends and bridges not checked
notes: PACAP27 with the VIP residue at position 13; bought from GenScript

- binding result [8]: binds
B3: tPACAP9-27 (truncated PACAP) (peptide)
peptide: SYSRYRKQMAVKKYLAAVL
modifications: ends and bridges not checked
notes: Synthetic truncation of PACAP27; the range is counted on PACAP27, by the peptide's name
